# Laboratory results as given in US11174260B2, “Compounds and methods for the treatment of parasitic diseases” (THE BROAD INSTITUTE, INC., priority 2017, dated 2021).
# Tested on: P. falciparum Dd2
# Assay: In vitro P. falciparum blood-stage culture and assay
# Format: cell-based
# Conditions: 72 h incubation, SYBR Green I readout, read-out: Pf Dd2
# Method: Strains of P. falciparum (Dd2, 3D7, D6, K1, NF54, V1/3, HB3, 7G8, FCB and TM90C2B) were obtained from the Malaria Research and Reference Reagent Resource Center (MR4). P. falciparum isolates were maintained with O-positive human blood in an atmosphere of 93% N2, 4% CO2, 3% O2 at 37° C. in complete culturing medium (10.4 g/L RPMI 1640, 5.94 g/L HEPES, 5 g/L albumax II, 50 mg/L hypoxanthine, 2.1 g/L sodium bicarbonate, 10% human serum and 43 mg/L gentamicin). Parasites were cultured in medium until parasitaemia reached 3-8%. Parasitaemia was determined by checking at least 500 red blood cells from a Giemsa-stained blood smear. For the compound screening, a parasite dilution at 2.0% parasitaemia and 2.0% haematocrit was created with medium. 25 μl of medium was dispensed into 384-well black, clear-bottom plates and 100 nl of each compound in DMSO was transferred into assay plates along with the control compound (mefloquine). Next, 25 μl of the parasite suspension in medium was dispensed into the assay plates giving a final parasitaemia of 1% and a final haematocrit of 1%. The assay plates were incubated for 72 h at 37° C. 10 μl of detection reagent consisting of 10×SYBR Green I (Invitrogen; supplied in 10,000× concentration) in lysis buffer (20 mM Tris-HCl, 5 mM EDTA, 0.16% (w/v) Saponin, 1.6% (v/v) Triton X-100) was dispensed into the assay plates. For optimal staining, the assay plates were left at room temperature for 24 h in the dark. The assay plates were read with 505 dichroic mirrors with 485 nm excitation and 530 nm emission settings in an Envision (PerkinElmer).
row,EC50,Structure (SMILES)
1,> 250 nM,"COc1ccc(NC(=O)N2CCC(O)CN3[C@H](CN(C)C)[C@H](c4ccc(C#Cc5ccccc5)cc4)[C@@H]3C2)cc1 (single isomer, unassigned) [Example E16]"
2,< 50 nM,"COc1ccc(NC(=O)N2CCC(O)CN3[C@H](CN(C)C)[C@H](c4ccc(C#Cc5ccccc5)cc4)[C@@H]3C2)cc1 (single isomer, unassigned) [Example E17]"

# Same assay, conditions: Plasmodium falciparum, DD2, 72 h, 72 h incubation, SYBR Green I readout, read-out: Pf Dd2
row,EC50,Structure (SMILES)
1,50 to 250 nM,"COc1ccc(NC(=O)N2CC[C@@H](N(C)C)CN3[C@H](CO)[C@H](c4ccc(C#Cc5ccccc5)cc4)[C@@H]3C2)cc1 [Example E28, (3R,8R,9R,10S)-3-(dimethylamino)-10-(hydroxymethyl)-N-(4-methoxyphenyl)-9-[4-(2-phenylethynyl)phenyl]-1,6-diazabicyclo[6.2.0]decane-6-carboxamide]"
2,< 50 nM,"COc1ccc(NC(=O)N2C[C@H]3OCCO[C@H]3CN3[C@H](CN(C)C)[C@H](c4ccc(C#Cc5ccccc5)cc4)[C@@H]3C2)cc1 [Example E14, (4aR,7aR,8S,9S,11aS)-9-((dimethylamino)methyl)-N-(4-methoxyphenyl)-8-(4-(phenylethynyl)phenyl)octahydro-2H-azeto[1,2-a][1,4]dioxino[2,3-f][1,4]diazocine-6(3H)-carboxamide]"
3,< 50 nM,"COc1ccc(NC(=O)N2C[C@@H](O)[C@@H](O)CN3[C@H](CN(C)C)[C@H](c4ccc(C#Cc5ccccc5)cc4)[C@@H]3C2)cc1 [Example E5, (3S,4R,8R,9S,10S)-10-((dimethylamino)methyl)-3,4-dihydroxy-N-(4-methoxyphenyl)-9-(4-(phenylethynyl)phenyl)-1,6-diazabicyclo[6.2.0]decane-6-carboxamide]"
4,50 to 250 nM,"COc1ccc(NC(=O)N2C[C@H](O)[C@H](O)CN3[C@H](CO)[C@H](c4ccc(C#Cc5cccnc5)cc4)[C@@H]3C2)cc1 [Example E23, (3R,4S,8R,9R,10S)-3,4-dihydroxy-10-(hydroxymethyl)-N-(4-methoxyphenyl)-9-(4-(pyridin-3-ylethynyl)phenyl)-1,6-diazabicyclo[6.2.0]decane-6-carboxamide]"
5,< 50 nM,"COc1ccc(NC(=O)N2C[C@@H](OC)[C@@H](OC)CN3[C@H](CN(C)C)[C@H](c4ccc(C#Cc5ccccc5)cc4)[C@@H]3C2)cc1 [Example E2, (3S,4R,8R,9S,10S)-10-((dimethylamino)methyl)-3,4-dimethoxy-N-(4-methoxyphenyl)-9-(4-(phenylethynyl)phenyl)-1,6-diazabicyclo[6.2.0]decane-6-carboxamide]"
6,> 250 nM,"COc1ccc(NC(=O)N2C[C@@H](O)[C@@H](O)CN3[C@H](CO)[C@H](c4ccc(C#Cc5cccnc5)cc4)[C@@H]3C2)cc1 [Example E22, (3S,4R,8R,9R,10S)-3,4-dihydroxy-10-(hydroxymethyl)-N-(4-methoxyphenyl)-9-(4-(pyridin-3-ylethynyl)phenyl)-1,6-diazabicyclo[6.2.0]decane-6-carboxamide]"
7,> 250 nM,"COc1ccc(NC(=O)N2CC(CN(C)C)CCN3[C@H](CN(C)C)[C@H](c4ccc(C#Cc5ccccc5)cc4)[C@@H]3C2)cc1 (stereo partly drawn) [Example E32, (8R,9S,10S)-4,10-bis[(dimethylamino)methyl]-N-(4-methoxyphenyl)-9-[4-(2-phenylethynyl)phenyl]-1,6-diazabicyclo[6.2.0]decane-6-carboxamide]"
8,> 250 nM,"COc1ccc(NC(=O)N2C[C@H](N(C)C)CCN3[C@H](CO)[C@H](c4ccc(C#Cc5ccccc5)cc4)[C@@H]3C2)cc1 [Example E30, (4R,8R,9R,10S)-4-(dimethylamino)-10-(hydroxymethyl)-N-(4-methoxyphenyl)-9-(4-(phenylethynyl)phenyl)-1,6-diazabicyclo[6.2.0]decane-6-carboxamide]"
9,50 to 250 nM,"COc1ccc(NC(=O)N2C[C@H](O)[C@H](O)CN3[C@H](CN(C)C)[C@H](c4ccc(C#Cc5ccccc5F)cc4)[C@@H]3C2)cc1 [Example E8, (3R,4S,8R,9S,10S)-10-[(dimethylamino)methyl]-9-[4-[2-(2-fluorophenyl)ethynyl]phenyl]-3,4-dihydroxy-N-(4-methoxyphenyl)-1,6-diazabicyclo[6.2.0]decane-6-carboxamide]"
10,> 250 nM,"COc1ccc(NC(=O)N2CC(CN(C)C)CCN3[C@H](CO)[C@H](c4ccc(C#Cc5ccccc5)cc4)[C@@H]3C2)cc1 (stereo partly drawn) [Example E31, (8R,9R,10S)-4-((dimethylamino)methyl)-10-(hydroxymethyl)-N-(4-methoxyphenyl)-9-(4-(phenylethynyl)phenyl)-1,6-diazabicyclo[6.2.0]decane-6-carboxamide]"
11,50 to 250 nM,"COc1ccc(NC(=O)N2C[C@@H](O)[C@@H](O)CN3[C@H](CN(C)C)[C@H](c4ccc(C#Cc5cccc(F)c5F)cc4)[C@@H]3C2)cc1 [Example E12, (3S,4R,8R,9S,10S)-9-(4-((2,3-difluorophenyl)ethynyl)phenyl)-10-((dimethylamino)methyl)-3,4-dihydroxy-N-(4-methoxyphenyl)-1,6-diazabicyclo[6.2.0]decane-6-carboxamide]"
12,< 50 nM,"COc1ccc(NC(=O)N2C[C@@H](O)[C@@H](O)CN3[C@H](CN(C)C(C)C)[C@H](c4ccc(C#Cc5ccccc5)cc4)[C@@H]3C2)cc1 [Example E10, (3S,4R,8R,9S,10S)-3,4-dihydroxy-10-[[isopropyl(methyl)amino]methyl]-N-(4-methoxyphenyl)-9-[4-(2-phenylethynyl)phenyl]-1,6-diazabicyclo[6.2.0]decane-6-carboxamide]"
13,< 50 nM,"CN(C)C[C@@H]1[C@H](c2ccc(C#Cc3ccccc3)cc2)[C@@H]2CN(C(=O)Nc3ccc(OC4CC4)cc3)C[C@H](O)[C@H](O)CN12 [Example E38, (3R,4S,8R,9S,10S)-N-(4-cyclopropoxyphenyl)-10-((dimethylamino)methyl)-3,4-dihydroxy-9-(4-(phenylethynyl)phenyl)-1,6-diazabicyclo[6.2.0]decane-6-carboxamide]"
14,50 to 250 nM,"COc1ccc(NC(=O)N2C[C@H](O)[C@H](O)CN3[C@H](CN(C)C(C)C)[C@H](c4ccc(C#Cc5ccccc5)cc4)[C@@H]3C2)cc1 [Example E11, (3R,4S,8R,9S,10S)-3,4-dihydroxy-10-[[isopropyl(methyl)amino]methyl]-N-(4-methoxyphenyl)-9-[4-(2-phenylethynyl)phenyl]-1,6-diazabicyclo[6.2.0]decane-6-carboxamide]"
15,> 250 nM,"COc1ccc(NC(=O)N2C[C@@H](O)CCN3[C@H](CN(C)C)[C@H](c4ccc(C#Cc5ccccc5)cc4)[C@@H]3C2)cc1 [Example E24, (4S,8R,9S,10S)-10-[(dimethylamino)methyl]-4-hydroxy-N-(4-methoxyphenyl)-9-[4-(2-phenylethynyl)phenyl]-1,6-diazabicyclo[6.2.0]decane-6-carboxamide]"
16,> 250 nM,"COc1ccc(NC(=O)N2C[C@@H](N(C)C)CCN3[C@H](CO)[C@H](c4ccc(C#Cc5ccccc5)cc4)[C@@H]3C2)cc1 [Example E3, (4S,8R,9R,10S)-4-(dimethylamino)-10-(hydroxymethyl)-N-(4-methoxyphenyl)-9-(4-(phenylethynyl)phenyl)-1,6-diazabicyclo[6.2.0]decane-6-carboxamide]"
17,< 50 nM,"COc1ccc(NC(=O)N2C[C@H](O)[C@H](O)CN3[C@H](CN(C)C)[C@H](c4ccc(C#Cc5cccc(F)c5F)cc4)[C@@H]3C2)cc1 [Example E13, (3R,4S,8R,9S,10S)-9-[4-[2-(2,3-difluorophenyl)ethynyl]phenyl]-10-[(dimethylamino)methyl]-3,4-dihydroxy-N-(4-methoxyphenyl)-1,6-diazabicyclo[6.2.0]decane-6-carboxamide]"
18,50 to 250 nM,"COc1ccc(NC(=O)N2CCC(CN(C)C)CN3[C@H](CN(C)C)[C@H](c4ccc(C#Cc5ccccc5)cc4)[C@@H]3C2)cc1 (stereo partly drawn) [Example E25, (8R,9S,10S)-3,10-bis[(dimethylamino)methyl]-N-(4-methoxyphenyl)-9-[4-(2-phenylethynyl)phenyl]-1,6-diazabicyclo[6.2.0]decane-6-carboxamide]"
19,< 50 nM,"COc1ccc(NC(=O)N2CCCC(C)N3[C@H](CN(C)C)[C@H](c4ccc(C#Cc5ccccc5)cc4)[C@@H]3C2)cc1 (stereo partly drawn) [Example E34, (8R,9S,10S)-10-((dimethylamino)methyl)-N-(4-methoxyphenyl)-2-methyl-9-(4-(phenylethynyl)phenyl)-1,6-diazabicyclo[6.2.0]decane-6-carboxamide]"
20,< 50 nM,"CN(C)C[C@@H]1[C@H](c2ccc(C#Cc3ccccc3)cc2)[C@@H]2CN(C(=O)Nc3ccc(OC4CC4)cc3)C[C@@H](O)[C@@H](O)CN12 (single isomer, unassigned) [Example E1]"
21,< 50 nM,"COc1ccc(NC(=O)N2C[C@@H](O)[C@@H](O)CN3[C@H](CN(C)C)[C@H](c4ccc(C#Cc5ccccc5F)cc4)[C@@H]3C2)cc1 [Example E7, (3S,4R,8R,9S,10S)-10-[(dimethylamino)methyl]-9-[4-[2-(2-fluorophenyl)ethynyl]phenyl]-3,4-dihydroxy-N-(4-methoxyphenyl)-1,6-diazabicyclo[6.2.0]decane-6-carboxamide]"
